Structures are written as SMILES. Structures can show the parent of a compound that is named as a salt. Where two headings read alike, the source gives them in different places.

These results are taken from publication PMC6348443 (Journal of Medicinal Chemistry, 2018).

In assay [1] the target is T1, DOR (Rattus norvegicus, UniProt P33533).
T1 construct: Membranes were prepared from Sprague-Dawley rat brains or guinea-pig brains according to the described procedures; tissue Labortierkunde und Laborgenetik, Medizinische Universität Wien; host or cells: Sprague-Dawley rat brain without cerebella
The experiment in a line: competition radioligand binding, rat brain membranes, [3H][Ile5,6]deltorphin II. The note with it: for Ki: rat brain membranes, read-out: opioid receptor binding Ki DOR.

The target of assay [2] is T2, KOR (Cavia porcellus, UniProt P41144).
T2 construct: Membranes were prepared from Sprague-Dawley rat brains or guinea-pig brains according to the described procedures; tissue Labortierkunde und Laborgenetik, Medizinische Universität Wien; host or cells: guinea-pig brain without cerebella
In words: competition radioligand binding, guinea-pig brain membranes, [3H]U69,593. The note with it: guinea-pig brain membranes; read-out: opioid receptor binding Ki KOR.

In assay [3] the target is T3, DOR (Homo sapiens, UniProt P41143).
T3 construct: host or cells: CHO (CHO-hDOR)
In words: [35S]GTPγS binding assay, CHO-hDOR membranes. The class given is biochemical. Particulars: for EC50: [35S]GTPγS, CHO human DOR membranes; for Emax: relative to reference full agonist DPDPE, read-out: DOR % stim. For orientation: GTPγS resists hydrolysis and so accumulates on activated G proteins.

For assay [4], the system named is male CD1 mice. In words: acetic acid-induced writhing assay after sc administration. Particulars: for ED50: Mus musculus, 0.5 h, read-out: ED50 (95% CI), mice, sc, inhibition of writhing 30 min after drug administration. The class given is in vivo, mouse. A general note: In writhing tests, fewer writhes than in controls are read as antinociception.
Assay [5] addresses T4, MOR (Homo sapiens, UniProt P35372).
T4 construct: host or cells: CHO (CHO-hMOR)
The experiment in a line: competition radioligand binding, CHO cell membranes expressing human MOR, [3H]DAMGO.

The Ki is the dissociation constant of the complex between target and ligand, obtained from inhibition or displacement. In general, EC50 refers to the midpoint of the concentration-response curve. Regarding `CC[C@H](N[C@H]1CC[C@@]2(OC)[C@H]3Cc4ccc(O)c5c4[C@@]2(CCN3C)[C@H]1O5)C(=O)O` [Compound 19a, (2S)-2-[(4,5α-Epoxy-3-hydroxy-14β-methoxy-17-methylmorphinan-6α-yl)amino]-2-ethylacetic Acid Dihydrochloride], the results for the Ki in assay [1], in assay [2] and in assay [5] were 37.5 ± 3.4 nM, 144 ± 7 nM and 0.95 ± 0.13 nM, respectively. Also, in assay [1] (rat brain, 18a vs 18b, 19a vs 19b), the “decreased DOR affinity vs 6β analogue” value turned out to be 29 times. In addition, the EC50 in assay [3] came to 98.2 ± 5.1 nM. In assay [3], the Emax was determined as 104 ± 9%. Moreover, the ED50 in assay [4] is less than 0.02 mg/kg. Also, the “ED50 (95% CI)” value in assay [4] (mice, inhibition of writhing 30 min after drug administration) is recorded as 17.5 (5.13–59.6) μg/kg.
Take `CO[C@@]12CC[C@H](N[C@H](C(=O)N[C@@H](Cc3ccc(O)cc3)C(=O)O)C(C)C)[C@@H]3Oc4c(O)ccc5c4[C@@]31CCN(C)[C@@H]2C5` [Compound 22a, (2S)-2-[[(4,5α-Epoxy-3-hydroxy-14β-methoxy-17-methylmorphinan-6α-yl)amino]-(2S)-3-methylbutyrylamino]-3-(4-hydroxyphenyl)propionic Acid]: the Ki was determined as 1.19 ± 0.42 nM in assay [1]; 69 ± 2.5 nM in assay [2]; 1.29 ± 0.13 nM in assay [5] (CHO cell membranes expressing human MOR, read-out: Ki MOR). It took 1.16 ± 0.6 nM to reach a half-maximal effect in assay [3] (EC50). Besides, in assay [3] (full agonist ≥85% of the response to DPDPE), the “functional profile at DOR (full/partial agonist)” value was “full agonists”. In assay [3], the Emax worked out at 88 ± 5%. In assay [4], the ED50 was determined as 0.178 mg/kg. For the same compound, the “higher antinociceptive potency than morphine” value in assay [4] (writhing assay, mice) was determined as 2.5 times.
